Test results as given in patent US9695155B2, “Herbicidal substituted pyrimidinyloxy benzene compounds” (E. I. DU PONT DE NEMOURS AND COMPANY, priority 2013, dated 2017).

Tests used:
pigweed [1] = assay: Test A postemergence; format: in vivo, Amaranthus retroflexus; details: 0 to 100 scale where 0 is no effect and 100 is complete control
In short: (§1)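 Visual injury scored 0–100 (100 = complete control) against untreated controls about 10 days after treatment in a greenhouse. Test chemicals, formulated with surfactant in non-phytotoxic solvent, were sprayed on soil preemergence or on 2-10 cm, one- to two-leaf plants postemergence.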

wild oat = assay: Test C postemergence; format: in vivo, Avena fatua
In short: (§2)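 Rated visually on 0–100 (100 = complete control) after 13–15 days under glass. Treatments went onto freshly seeded loam/sand soil or onto emerged plants at the 1- to 4-leaf stage, using a surfactant-containing solvent formulation.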

pigweed [2] = assay: Test A preemergence; format: in vivo, Amaranthus retroflexus
In short: as §1

johnsongrass = assay: Test C postemergence; format: in vivo, Sorghum halepense
In short: as §2

velvetleaf [3] = assay: Test A postemergence; format: in vivo, Abutilon theophrasti; details: 0 to 100 scale where 0 is no effect and 100 is complete control
In short: as §1

kochia = assay: Test C postemergence; format: in vivo, Kochia scoparia
In short: as §2

barnyardgrass = assay: Test C postemergence; format: in vivo, Echinochloa crus-galli
In short: as §2

large (Lg) crabgrass [4] = assay: Test A postemergence; format: in vivo, Digitaria sanguinalis; details: 0 to 100 scale where 0 is no effect and 100 is complete control
In short: as §1

large (Lg) crabgrass [5] = assay: Test A preemergence; format: in vivo, Digitaria sanguinalis
In short: as §1

velvetleaf [6] = assay: Test A preemergence; format: in vivo, Abutilon theophrasti
In short: as §1

corn [7] = assay: Test A postemergence; format: in vivo, Zea mays; details: 0 to 100 scale where 0 is no effect and 100 is complete control
In short: as §1

morningglory = assay: Test A postemergence; format: in vivo, Ipomoea spp.; details: 0 to 100 scale where 0 is no effect and 100 is complete control
In short: as §1

corn [8] = assay: Test C postemergence; format: in vivo, Zea mays
In short: as §2

Italian ryegrass = assay: Test C postemergence; format: in vivo, Lolium multiflorum
In short: as §2

pigweed [9] = assay: Test C postemergence; format: in vivo, Amaranthus retroflexus
In short: as §2

soybean = assay: Test C postemergence; format: in vivo, Glycine max
In short: as §2

waterhemp = assay: Test C postemergence; format: in vivo, Amaranthus rudis
In short: as §2

giant foxtail = assay: Test C postemergence; format: in vivo, Setaria faberii
In short: as §2

[10] = 16 g ai/ha, postemergence, 0 is no effect, 100 is complete control
[11] = 31 g ai/ha, postemergence, visual rating, scale 0 to 100 (0 no effect, 100 complete control), 13 to 15 days
[12] = 125 g ai/ha, postemergence, visual rating, scale 0 to 100 (0 no effect, 100 complete control)
[13] = Postemergence, 62 g ai/ha, scale 0 to 100 (0 no effect, 100 complete control), 13 to 15 days
[14] = 500 g ai/ha, 0 to 100 scale where 0 is no effect and 100 is complete control

FC(F)c1cnn(-c2c(Cl)cccc2Oc2ncc(Cl)cn2)c1 [Compound 192]
Pigweed plant response rating (pigweed [1]; 125 g ai/ha): 100
Plant response rating, Pigweed (pigweed [1]; 500 g ai/ha): 100
Plant response rating (0 to 100), Oat, Wild (wild oat; [10]): 0
Oat, Wild plant response rating (wild oat; [11]): 0
Plant response rating, Oat, Wild (wild oat; [12]): 5
Plant response rating, Oat, Wild (wild oat; [13]): 5
Pigweed plant response rating (0 to 100 scale) (pigweed [2]; 125 g ai/ha): 100
Pigweed plant response rating (pigweed [2]; [14]): 100
Plant response rating (0 to 100), Johnsongrass (johnsongrass; [10]): 5
Johnsongrass plant response rating (johnsongrass; [11]): 10
Plant response rating, Johnsongrass (johnsongrass; [12]): 10
Plant response rating, Johnsongrass (johnsongrass; [13]): 5
Velvetleaf plant response rating (velvetleaf [3]; 125 g ai/ha): 90
Plant response rating, Velvetleaf (velvetleaf [3]; 500 g ai/ha): 100
Plant response rating (0 to 100), Kochia (kochia; [10]): 30
Kochia plant response rating (kochia; [11]): 45
Plant response rating, Kochia (kochia; [12]): 90
Plant response rating, Kochia (kochia; [13]): 85
Plant response rating (0 to 100), Barnyardgrass (barnyardgrass; [10]): 5
Barnyardgrass plant response rating (barnyardgrass; [11]): 10
Plant response rating, Barnyardgrass (barnyardgrass; [12]): 10
Plant response rating, Barnyardgrass (barnyardgrass; Postemergence, 62 g ai/ha, scale 0 to 100 (0 no effect, 100 complete control)): 10
Crabgrass, Large plant response rating (large (Lg) crabgrass [4]; 125 g ai/ha): 50
Plant response rating, Crabgrass, Large (large (Lg) crabgrass [4]; 500 g ai/ha): 90
Crabgrass, Large plant response rating (0 to 100 scale) (large (Lg) crabgrass [5]; 125 g ai/ha): 100
Crabgrass, Large plant response rating (large (Lg) crabgrass [5]; [14]): 100
Velvetleaf plant response rating (0 to 100 scale) (velvetleaf [6]; 125 g ai/ha): 90
Velvetleaf plant response rating (velvetleaf [6]; [14]): 100
Corn plant response rating (corn [7]; 125 g ai/ha): 10
Plant response rating, Corn (corn [7]; 500 g ai/ha): 60
Morningglory plant response rating (morningglory; 125 g ai/ha): 80
Plant response rating, Morningglory (morningglory; 500 g ai/ha): 100
Plant response rating (0 to 100), Corn (corn [8]; [10]): 0
Corn plant response rating (corn [8]; [11]): 5
Plant response rating, Corn (corn [8]; [12]): 5
Plant response rating, Corn (corn [8]; [13]): 5
Plant response rating (0 to 100), Ryegrass, Italian (Italian ryegrass; [10]): 0
Ryegrass, Italian plant response rating (Italian ryegrass; [11]): 0
Plant response rating, Ryegrass, Italian (Italian ryegrass; [12]): 5
Plant response rating, Ryegrass, Italian (Italian ryegrass; [13]): 5
Plant response rating (0 to 100), Pigweed (pigweed [9]; [10]): 60
Pigweed plant response rating (pigweed [9]; [11]): 65
Plant response rating, Pigweed (pigweed [9]; [12]): 70
Plant response rating, Pigweed (pigweed [9]; [13]): 80
Plant response rating (0 to 100), Soybean (soybean; [10]): 30
Soybean plant response rating (soybean; [11]): 30
Plant response rating, Soybean (soybean; [12]): 80
Plant response rating, Soybean (soybean; [13]): 75
Plant response rating (0 to 100), Waterhemp (waterhemp; [10]): 40
Waterhemp plant response rating (waterhemp; [11]): 50
Plant response rating, Waterhemp (waterhemp; [12]): 85
Plant response rating, Waterhemp (waterhemp; [13]): 65
Plant response rating (0 to 100), Foxtail, Giant (giant foxtail; [10]): 5
Foxtail, Giant plant response rating (giant foxtail; [11]): 5
Plant response rating, Foxtail, Giant (giant foxtail; [12]): 10
Plant response rating, Foxtail, Giant (giant foxtail; [13]): 5
